Laboratory results as given in ChEMBL document CHEMBL4152189, “Incorporation of nitric oxide donor into 1,3-dioxyxanthones leads to synergistic anticancer activity” (Eur J Med Chem, 2018).

What was measured:
Type in all cases: functional, cell-based
MDA-MB-231 = assay: Growth inhibition of human MDA-MB-231 cells after 24 hrs by MTT assay; conditions: MDA-MB-231, 24 h
MCF7 = assay: Growth inhibition of human MCF7 cells after 24 hrs by MTT assay; conditions: MCF7, 24 h
HepG2 = assay: Growth inhibition of human HepG2 cells after 24 hrs by MTT assay; conditions: HepG2, 24 h

IC50 (MDA-MB-231) [µM]	IC50 (MCF7) [µM]	IC50 (HepG2) [µM]	Structure (SMILES)
11.2	104	21.5	COc1cccc2oc3cc(OCCO[N+](=O)[O-])cc(O)c3c(=O)c12
7.79	25.1	5.32	O=c1c2cc(Cl)ccc2oc2cc(OCCCCCO[N+](=O)[O-])cc(O)c12
112	> 200	53.6	COc1cc2oc3cc(OCCCO[N+](=O)[O-])cc(O)c3c(=O)c2cc1OC
6.25	63	10.2	COc1cccc2oc3cc(OCCCCO[N+](=O)[O-])cc(O)c3c(=O)c12
90.9	> 200	20.5	O=c1c2ccccc2oc2cc(OCCO[N+](=O)[O-])cc(O)c12
66.7	> 200	96	O=c1c2ccc(O)cc2oc2cc(OCCCCO[N+](=O)[O-])cc(O)c12
9.74	13.3	6.03	O=c1c2cc(Cl)ccc2oc2cc(OCCCCCCO[N+](=O)[O-])cc(O)c12
43.6	> 200	14	O=c1c2cc(Br)ccc2oc2cc(OCCCO[N+](=O)[O-])cc(O)c12
66	> 200	32.5	COc1cccc2oc3cc(O)cc(O)c3c(=O)c12
> 200	> 200	123	COc1cc2oc3cc(O)cc(O)c3c(=O)c2cc1OC
55.9	42.7	8.76	Cc1ccc2c(=O)c3c(O)cc(OCCCCCCCO[N+](=O)[O-])cc3oc2c1
9.68	102	13.6	COc1cccc2oc3cc(OCCCO[N+](=O)[O-])cc(O)c3c(=O)c12
4.29	53.5	5.26	COc1cccc2oc3cc(OCCCCCCCO[N+](=O)[O-])cc(O)c3c(=O)c12
130	> 200	91.7	COc1cc2oc3cc(OCCO[N+](=O)[O-])cc(O)c3c(=O)c2cc1OC
11.2	42.9	10.1	O=c1c2cc(Cl)ccc2oc2cc(OCCCCO[N+](=O)[O-])cc(O)c12
134	> 200	33	O=c1c2cc(O)ccc2oc2cc(OCCCO[N+](=O)[O-])cc(O)c12
43.5	153	5.24	O=c1c2ccccc2oc2cc(OCCCCCCCO[N+](=O)[O-])cc(O)c12
> 200	> 200	93.2	COc1ccc2oc3cc(O)cc(O)c3c(=O)c2c1
87.4	> 200	21.2	COc1cc2oc3cc(OCCCCO[N+](=O)[O-])cc(O)c3c(=O)c2cc1OC

The remaining lines, values behind:

Structure (SMILES)	IC50 (MDA-MB-231) [µM]	IC50 (MCF7) [µM]	IC50 (HepG2) [µM]
COc1cc2oc3cc(OCCCCCCCO[N+](=O)[O-])cc(O)c3c(=O)c2cc1OC	67.6	163	13.2
O=c1c2ccc(O)cc2oc2cc(OCCCO[N+](=O)[O-])cc(O)c12	82.7	> 200	116
O=c1c2ccc(O)cc2oc2cc(OCCCCCCO[N+](=O)[O-])cc(O)c12	10.6	> 200	26.4
O=c1c2cc(O)ccc2oc2cc(OCCCCCCCO[N+](=O)[O-])cc(O)c12	74.3	112	15.2
COc1ccc2oc3cc(OCCCCCCCO[N+](=O)[O-])cc(O)c3c(=O)c2c1	16.2	71.2	42.1
O=c1c2cc(Cl)ccc2oc2cc(OCCCO[N+](=O)[O-])cc(O)c12	27.8	53.4	17.4
O=c1c2ccccc2oc2cc(OCCCCO[N+](=O)[O-])cc(O)c12	56.6	> 200	6.55
O=[N+]([O-])OCCCO [ABRUCOMSTAT]	> 200	> 200	111
Cc1ccc2c(=O)c3c(O)cc(OCCCCCCO[N+](=O)[O-])cc3oc2c1	10.3	35.1	1.28
O=c1c2cc(Cl)ccc2oc2cc(OCCO[N+](=O)[O-])cc(O)c12	33.3	74.3	43.1
COc1ccc2oc3cc(OCCCO[N+](=O)[O-])cc(O)c3c(=O)c2c1	35.6	98.2	63.5
O=c1c2ccc(O)cc2oc2cc(O)cc(O)c12	> 200	> 200	> 200
COc1cc2oc3cc(OCCCCCCO[N+](=O)[O-])cc(O)c3c(=O)c2cc1OC	19.8	98.2	1.83
O=c1c2cc(Br)ccc2oc2cc(OCCCCO[N+](=O)[O-])cc(O)c12	11.2	42.9	10.1
COc1ccc2oc3cc(OCCCCCCO[N+](=O)[O-])cc(O)c3c(=O)c2c1	3.05	41.1	13.6
O=c1c2cc(Br)ccc2oc2cc(OCCCCCCCO[N+](=O)[O-])cc(O)c12	9.27	35.9	7.28
COc1cccc2oc3cc(OCCCCCO)cc(O)c3c(=O)c12	41.1	> 200	23.7
O=c1c2cc(O)ccc2oc2cc(OCCCCO[N+](=O)[O-])cc(O)c12	92.6	143	22.3
O=c1c2cc(Br)ccc2oc2cc(OCCCCCCO[N+](=O)[O-])cc(O)c12	15	43.5	1.21
O=c1c2ccc(O)cc2oc2cc(OCCCCCO[N+](=O)[O-])cc(O)c12	41.4	112	62.3

Structure (SMILES)	IC50 (MDA-MB-231) [µM]	IC50 (MCF7) [µM]	IC50 (HepG2) [µM]
O=c1c2cc(Br)ccc2oc2cc(OCCCCCO[N+](=O)[O-])cc(O)c12	11.1	73.2	2.65
COc1ccc2oc3cc(OCCCCCO[N+](=O)[O-])cc(O)c3c(=O)c2c1	9.29	53.4	33.3
O=c1c2cc(O)ccc2oc2cc(OCCCCCCO[N+](=O)[O-])cc(O)c12	18.5	53.7	11.4
COc1ccc2oc3cc(OCCCCO[N+](=O)[O-])cc(O)c3c(=O)c2c1	22.3	83.2	52.1
O=c1c2cc(O)ccc2oc2cc(OCCCCCO[N+](=O)[O-])cc(O)c12	44.6	91.2	9.91
O=c1c2ccccc2oc2cc(OCCCCCO[N+](=O)[O-])cc(O)c12	40.7	> 200	4.08
Cc1ccc2c(=O)c3c(O)cc(OCCCO[N+](=O)[O-])cc3oc2c1	78.4	62.8	12.8
O=c1c2ccccc2oc2cc(OCCCO[N+](=O)[O-])cc(O)c12	83.9	> 200	12.3
O=c1c2cc(Cl)ccc2oc2cc(OCCCCCCCO[N+](=O)[O-])cc(O)c12	10.2	30.8	8.13
O=[N+]([O-])OCCCCO	157	> 200	90.8
O=[N+]([O-])OCCCCCCO	90.4	89.7	52.6
Cc1ccc2c(=O)c3c(O)cc(OCCCCO[N+](=O)[O-])cc3oc2c1	62.9	47.7	10.6
COc1cccc2oc3cc(OCCCCCCO[N+](=O)[O-])cc(O)c3c(=O)c12	0.45	31	0.61
O=c1c2ccc(O)cc2oc2cc(OCCCCCCCO[N+](=O)[O-])cc(O)c12	51.5	> 200	76.2
COc1cc2oc3cc(OCCCCCO[N+](=O)[O-])cc(O)c3c(=O)c2cc1OC	45.6	> 200	6.35
O=c1c2ccccc2oc2cc(OCCCCCCO[N+](=O)[O-])cc(O)c12	23.5	93.1	3.17
O=c1c2ccc(O)cc2oc2cc(OCCO[N+](=O)[O-])cc(O)c12	108	> 200	160
O=c1c2cc(O)ccc2oc2cc(O)cc(O)c12	> 200	> 200	> 200
Cc1ccc2c(=O)c3c(O)cc(OCCCCCO[N+](=O)[O-])cc3oc2c1	30.7	39.5	2.95
